The test system of assay [1] is B. longum strain CNCM I-2618 (NCC 2705). As to the kind of experiment: Serpin protein levels (ELISA) in B. longum NCC 2705 grown on different carbohydrates. In kind it is cell-based, Bifidobacterium longum subsp longum. The protocol:
B. longum strain CNCM I-2618 (NCC 2705) was grown in Biolector (growth conditions—anaerobic, 37° C.) in MRS+5 mM L-cysteine (MRSc) base without sugar, to which different carbohydrates were added.
(§1) 48-well microtiter plate with pH sensor and dissolved oxygen (DO) sensor were used to culture the strains in Biolector (m2p-labs Aachen, Germany). It was continuously shaken to prevent bacteria aggregation for 24 h and 48 h. Cultures were harvested by centrifugation and supernatant was removed. Pellet was resuspended in PBS supplemented with halt protease inhibitor (Sigma) and lysed using glassbeads. Lysate containing both soluble and insoluble material was then collected. Total protein content was measured using Pierce BCA kit (Thermofisher) and serpin protein concentration was determined using ELISA.
B. longum NCC 2705 was cultured in Biolector (as described in Example 1) in a base of MRSc without sugar, with the addition of different di-saccharides and tri-saccharides, at concentrations of 0.5 wt % and 1 wt %. Cultures were collected after 48 h of growth and analyzed for total & serpin protein levels (as described in Example 1).
B. longum NCC 2705 was cultured in Biolector (as described in Example 1) in a base of MRSc without sugar, with the addition of different short chain fructo-oligosaccharides (FOS), at concentrations of 1 wt %. Cultures were collected after 16 h of growth and analyzed for total & serpin protein levels (as described in Example 1).
The FOS used were (i) NutraFlora P95 FOs from Ingredion Inc, USA., a short-chain FOS with Glucose-Fructose (GF) chains with DP from 3 to 5 and comprising GF2, GF3 and GF4 molecules; (ii) Orafti P95 from Beneo, a short-chain FOS with DP from 2 to 8.

The test system is the same in assay [2]. The assay can be described thus: Culture density (Optical Density at 600 nm) of B. longum NCC 2705 grown on carbohydrates. To be noted: grown on different carbohydrates for 24 h and 48 h (FIG. 2). In kind it is cell-based, Bifidobacterium longum subsp longum. The protocol:
as §1, with “B. longum strain CNCM I-2618 (NCC 2705) was grown in Biolector (growth conditions-anaerobic, 37° C.) in MRS+5 mM L-cysteine (MRSc) base without sugar, to which different carbohydrates were added. 48-well” for “48-well”, “[…]-labs” for “(m2p-labs”

Assay [3] deals with T1, transglutaminase 2 (TG2) (Homo sapiens, UniProt P21980).
T1 sequence (P21980 1-687): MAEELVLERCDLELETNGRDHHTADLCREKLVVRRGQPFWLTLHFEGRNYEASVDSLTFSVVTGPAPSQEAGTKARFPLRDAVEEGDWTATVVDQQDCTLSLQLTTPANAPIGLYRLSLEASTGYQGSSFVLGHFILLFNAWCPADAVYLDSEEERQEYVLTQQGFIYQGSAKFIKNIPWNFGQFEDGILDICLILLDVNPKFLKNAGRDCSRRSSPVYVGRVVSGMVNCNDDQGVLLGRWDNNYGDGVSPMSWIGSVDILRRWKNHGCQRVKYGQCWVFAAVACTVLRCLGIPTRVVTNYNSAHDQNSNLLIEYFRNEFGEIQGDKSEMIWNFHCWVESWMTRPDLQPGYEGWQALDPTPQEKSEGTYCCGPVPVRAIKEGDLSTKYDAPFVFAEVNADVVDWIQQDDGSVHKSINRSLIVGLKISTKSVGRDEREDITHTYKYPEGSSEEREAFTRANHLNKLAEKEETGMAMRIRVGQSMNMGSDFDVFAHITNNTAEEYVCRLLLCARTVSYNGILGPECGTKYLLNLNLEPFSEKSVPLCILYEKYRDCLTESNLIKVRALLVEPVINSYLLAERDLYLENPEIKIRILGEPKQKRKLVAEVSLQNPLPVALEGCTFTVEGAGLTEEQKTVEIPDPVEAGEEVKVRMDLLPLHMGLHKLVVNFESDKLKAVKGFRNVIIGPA
Conditions: in-vitro, addition of elafin; cited from earlier work.

The test system of assay [4] is various forms of elastases and proteinase. To be noted: cited from earlier work.

Ends that are not written are not given here.

Take `O=C(CO)[C@@H](O)[C@H](O)[C@H](O)CO` [fructose, reference compound]: the serpin protein levels result in assay [1] (grown for 48 h on different carbohydrates, compared to all other sugars tested (FIG. 1)) was “increase B. longum NCC 2705 serpin protein levels”. In assay [1] (grown on different carbohydrates for 24 h and 48 h (FIG. 2)), the serpin induction entry is reported as “induce serpin in B. longum NCC 2705 to a higher magnitude than galactose”. In addition, in assay [2], the “growth (culture density, Optical Density at 600 nm)” value is “retarded growth”.
Turning to `OC[C@H]1O[C@H](OC[C@H]2O[C@H](O[C@]3(CO)O[C@H](CO)[C@@H](O)[C@@H]3O)[C@H](O)[C@@H](O)[C@@H]2O)[C@H](O)[C@@H](O)[C@H]1O` [raffinose], the serpin levels entry in assay [1] (0.5 wt %, 48 h of growth, MRSc base without sugar (FIG. 3), effect not obtained at 1 wt %) was “significant increase in serpin levels”.
With `OC[C@H]1O[C@@](CO)(O[C@H]2O[C@H](CO)[C@@H](O)[C@H](O)[C@H]2O)[C@@H](O)[C@@H]1O` [saccharose], the serpin production entry in assay [1] (1 wt %, 48 h of growth, MRSc base without sugar (FIG. 3)) was “induce strongly serpin production”.
With “elafin: human serine protease inhibitor (AQEPVKGPVSTKPGSCPIILIRCAMLNPPNRCLKDTDCPGIKKCCEGSCGMACFVPQ; ends and bridges not checked; cysteine pairing not given here; UniProt P19957 61-117, looked up)”, the “inhibition of transglutaminase 2 (TG2)” value in assay [3] is “moderately inhibits transglutaminase 2 (TG2)”. The “inhibitory capacity against elastases and proteinase” value in assay [4] is recorded as “potent inhibitory capacity”.

Source of the values: patent publication US12644094B2, “Serpin production” (SOCIETE DES PRODUITS NESTLE S.A., priority 2019, dated 2026).
